Data set [1] can be described thus: Inhibition of His-tagged recombinant catalytic fragment of PKA assessed as phosphorylation of fluorescent-labeled peptide 21substrate by caliper capillary electrophoresis.
In data set [2] the target is T1, Serine/threonine-protein kinase 33 (Homo sapiens, UniProt Q9BYT3). In words: Inhibition of N-terminal 6His-tagged full length human recombinant STK33 using myelin basic protein as substrate incubated for 15 mins before initiation of kinase reaction measured after 1 hr by ADP-glo assay.
Target sequence in this assay (Q9BYT3 whole entry, the tested form may be a part): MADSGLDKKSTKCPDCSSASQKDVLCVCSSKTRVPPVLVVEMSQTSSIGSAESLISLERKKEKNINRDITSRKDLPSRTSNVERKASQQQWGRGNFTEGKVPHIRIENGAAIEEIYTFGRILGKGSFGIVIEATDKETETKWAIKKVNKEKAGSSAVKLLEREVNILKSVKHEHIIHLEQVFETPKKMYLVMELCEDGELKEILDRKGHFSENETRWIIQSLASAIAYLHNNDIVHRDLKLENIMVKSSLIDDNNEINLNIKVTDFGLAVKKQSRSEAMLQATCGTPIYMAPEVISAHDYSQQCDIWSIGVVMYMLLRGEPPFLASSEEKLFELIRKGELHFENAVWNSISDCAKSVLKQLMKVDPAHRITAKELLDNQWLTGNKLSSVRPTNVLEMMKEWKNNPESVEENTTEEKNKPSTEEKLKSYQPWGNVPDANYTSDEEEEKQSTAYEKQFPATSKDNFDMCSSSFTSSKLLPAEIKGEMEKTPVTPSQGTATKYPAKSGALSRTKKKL
For data set [3], the species on record is Homo sapiens. In words: Selectivity ratio of IC50 for His-tagged recombinant catalytic fragment of PKA to IC50 for N-terminal 6His-tagged full length human recombinant STK33.
Data set [4] in a line: Chemical stability of the compound in DMSO solution by LC-MS analysis. Format: physicochemical.
The species named for data set [5] is Homo sapiens. Briefly: Selectivity ratio of IC50 for human Aurora-B to IC50 for N-terminal 6His-tagged full length human recombinant STK33.
Data set [6] is filed under the species Homo sapiens. Briefly: Selectivity ratio of IC50 for N-terminal 6His-tagged full length human recombinant STK33 to IC50 for human Aurora-B.
Data set [7] is described as follows: Metabolic stability in mouse plasma at 5 uM after 5 hrs by UPLC-MS analysis. Format: ADME, cell-free. The settings on record: read-out: Stability.
Data set [8] can be described thus: Metabolic stability in human plasma at 5 uM after 5 hrs by UPLC-MS analysis. Format: ADME, cell-free. Particulars: read-out: Stability.
In data set [9] the test system is Plasma. Briefly: Plasma protein binding in mouse at 5 uM after 5 hrs by equilibrium dialysis method. The data set is classed as ADME, cell-free. (In general: In equilibrium dialysis free small molecules cross a membrane that holds back macromolecules.)
For data set [10], the system named is Plasma. Briefly: Plasma protein binding in human at 5 uM after 5 hrs by equilibrium dialysis method. Format: ADME, cell-free.
A short description of data set [11]: Solubility of the compound in PBS at pH 7.4. Format: physicochemical. Particulars: buffer.
A further data set concerns OCI-AML-3. In words: Cytotoxicity against human OCI-AML3 cells expressing wild type KRAS assessed as effect on cell viability up to 10 uM after 72 hrs by CellTiter-Glo luminescent assay. The data set is classed as functional, cell-based. (In ATP-based viability assays light output follows the ATP content of the culture.)
A further data set relates to THP-1. In words: Cytotoxicity against human THP1 cells expressing wild type KRAS assessed as effect on cell viability up to 10 uM after 72 hrs by CellTiter-Glo luminescent assay. The data set is classed as functional, cell-based.
Another data set deals with Jurkat. Briefly: Cytotoxicity against human Jurkat cells expressing wild type KRAS assessed as effect on cell viability up to 10 uM after 72 hrs by CellTiter-Glo luminescent assay. The data set is classed as functional, cell-based.
In a further data set the test system is MOLM16. In words: Cytotoxicity against human MOLM16 cells expressing wild type KRAS assessed as effect on cell viability up to 10 uM after 72 hrs by CellTiter-Glo luminescent assay. The data set is classed as functional, cell-based.
The next data set deals with MM1.S. In words: Cytotoxicity against human MM1S cells expressing wild type KRAS assessed as effect on cell viability up to 10 uM after 72 hrs by CellTiter-Glo luminescent assay. The data set is classed as functional, cell-based.
Another data set relates to U-937. In words: Cytotoxicity against human U937 cells expressing wild type KRAS assessed as effect on cell viability up to 10 uM after 72 hrs by CellTiter-Glo luminescent assay. The data set is classed as functional, cell-based.
In another data set the test system is EJM. In words: Cytotoxicity against human EJM cells expressing wild type KRAS assessed as effect on cell viability up to 10 uM after 72 hrs by CellTiter-Glo luminescent assay. Format: functional, cell-based.
In another data set the test system is GDM-1. In words: Cytotoxicity against human GDM-1 cells expressing wild type KRAS assessed as effect on cell viability up to 10 uM after 72 hrs by CellTiter-Glo luminescent assay. Format: functional, cell-based.
Another data set relates to EOL1. In words: Cytotoxicity against human EOL-1 cells expressing wild type KRAS assessed as effect on cell viability up to 10 uM after 72 hrs by CellTiter-Glo luminescent assay. Format: functional, cell-based.
Another data set relates to PL21. Briefly: Cytotoxicity against human PL21 cells expressing wild type KRAS assessed as effect on cell viability up to 10 uM after 72 hrs by CellTiter-Glo luminescent assay. Format: functional, cell-based.
Data set [12] is filed under the species Homo sapiens. In words: Cytotoxicity against human KARPAS620 cells expressing KRAS mutant gene assessed as effect on cell viability up to 10 uM after 72 hrs by CellTiter-Glo luminescent assay. The data set is classed as functional, cell-based.
The next data set has as its system RPMI-8226. In words: Cytotoxicity against human RPMI8226 cells expressing KRAS mutant gene assessed as effect on cell viability up to 10 uM after 72 hrs by CellTiter-Glo luminescent assay. The data set is classed as functional, cell-based.
The subject of the next data set is NB-4. In words: Cytotoxicity against human NB4 cells expressing KRAS mutant gene assessed as effect on cell viability up to 10 uM after 72 hrs by CellTiter-Glo luminescent assay. The data set is classed as functional, cell-based.
For another data set, the system named is SKM-1. Briefly: Cytotoxicity against human SKM1 cells expressing KRAS mutant gene assessed as effect on cell viability up to 10 uM after 72 hrs by CellTiter-Glo luminescent assay. Format: functional, cell-based.
A further data set concerns KOPN-8. Briefly: Cytotoxicity against human KOPN8 cells expressing KRAS mutant gene assessed as effect on cell viability up to 10 uM after 72 hrs by CellTiter-Glo luminescent assay. The data set is classed as functional, cell-based.
In another data set the test system is MDA-MB-231. Briefly: Cytotoxicity against human MDA-MB-231 cells expressing KRAS mutant gene assessed as effect on cell viability up to 10 uM after 72 hrs by CellTiter-Glo luminescent assay. The data set is classed as functional, cell-based.
The test system of the next data set is NOMO-1. In words: Cytotoxicity against human NOMO1 cells expressing KRAS mutant gene assessed as effect on cell viability up to 10 uM after 72 hrs by CellTiter-Glo luminescent assay. The data set is classed as functional, cell-based.
Data set [13] has as its target T1, Serine/threonine-protein kinase 33. Particulars: 1 uM.
Target sequence in this assay (Q9BYT3 whole entry, looked up, the tested form may be a part): as the sequence (Q9BYT3 whole entry, the tested form may be a part) above
Description: Inhibition of N-terminal 6His-tagged full length human recombinant STK33 using myelin basic protein as substrate at 1 uM incubated for 15 mins before initiation of kinase reaction measured after 1 hr by ADP-glo assay
In data set [14] the target is Vascular endothelial growth factor receptor 2 (Homo sapiens) (UniProt P35968). The settings on record: 1 uM.
Sequence of Vascular endothelial growth factor receptor 2 (Homo sapiens) (P35968 whole entry): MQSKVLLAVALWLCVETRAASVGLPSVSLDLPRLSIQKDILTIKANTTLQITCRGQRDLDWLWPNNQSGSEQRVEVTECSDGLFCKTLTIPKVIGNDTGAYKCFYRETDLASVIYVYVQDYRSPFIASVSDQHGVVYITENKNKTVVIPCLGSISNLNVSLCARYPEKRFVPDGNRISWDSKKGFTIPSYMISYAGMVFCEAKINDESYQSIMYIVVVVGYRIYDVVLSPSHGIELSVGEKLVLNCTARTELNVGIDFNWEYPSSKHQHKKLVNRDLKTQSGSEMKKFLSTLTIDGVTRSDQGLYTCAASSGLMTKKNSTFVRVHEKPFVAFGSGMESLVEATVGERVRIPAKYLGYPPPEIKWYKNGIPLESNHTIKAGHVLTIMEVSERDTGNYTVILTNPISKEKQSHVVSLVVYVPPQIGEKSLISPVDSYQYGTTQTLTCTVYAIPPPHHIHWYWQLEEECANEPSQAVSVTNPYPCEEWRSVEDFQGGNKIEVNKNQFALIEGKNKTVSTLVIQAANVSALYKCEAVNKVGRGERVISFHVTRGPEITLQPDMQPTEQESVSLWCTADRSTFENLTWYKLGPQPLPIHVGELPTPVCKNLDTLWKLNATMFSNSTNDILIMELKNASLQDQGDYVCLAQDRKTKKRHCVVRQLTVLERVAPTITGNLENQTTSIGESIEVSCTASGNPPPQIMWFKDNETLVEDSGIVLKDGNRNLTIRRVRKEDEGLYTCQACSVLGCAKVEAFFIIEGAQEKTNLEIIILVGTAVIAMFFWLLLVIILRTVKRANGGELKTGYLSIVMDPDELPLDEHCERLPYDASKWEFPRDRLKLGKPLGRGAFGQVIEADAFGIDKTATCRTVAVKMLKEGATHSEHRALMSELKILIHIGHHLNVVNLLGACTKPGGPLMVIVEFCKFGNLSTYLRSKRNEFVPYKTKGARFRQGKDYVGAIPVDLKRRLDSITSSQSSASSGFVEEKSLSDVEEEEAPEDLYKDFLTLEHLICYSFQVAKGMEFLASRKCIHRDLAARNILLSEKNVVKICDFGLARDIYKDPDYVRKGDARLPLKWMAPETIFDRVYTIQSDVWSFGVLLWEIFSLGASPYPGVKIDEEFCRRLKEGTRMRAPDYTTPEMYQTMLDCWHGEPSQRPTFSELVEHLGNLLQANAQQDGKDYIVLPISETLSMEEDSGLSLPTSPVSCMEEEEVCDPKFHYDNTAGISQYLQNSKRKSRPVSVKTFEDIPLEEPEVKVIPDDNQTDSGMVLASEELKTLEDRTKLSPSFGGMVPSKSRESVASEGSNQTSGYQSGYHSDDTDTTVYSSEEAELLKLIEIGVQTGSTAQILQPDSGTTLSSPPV
Description: Inhibition of human KDR at 1 uM
For data set [15], the target named is Receptor-type tyrosine-protein kinase FLT3 (Homo sapiens) (UniProt P36888). The settings on record: 1 uM.
Sequence of Receptor-type tyrosine-protein kinase FLT3 (Homo sapiens) (P36888 whole entry): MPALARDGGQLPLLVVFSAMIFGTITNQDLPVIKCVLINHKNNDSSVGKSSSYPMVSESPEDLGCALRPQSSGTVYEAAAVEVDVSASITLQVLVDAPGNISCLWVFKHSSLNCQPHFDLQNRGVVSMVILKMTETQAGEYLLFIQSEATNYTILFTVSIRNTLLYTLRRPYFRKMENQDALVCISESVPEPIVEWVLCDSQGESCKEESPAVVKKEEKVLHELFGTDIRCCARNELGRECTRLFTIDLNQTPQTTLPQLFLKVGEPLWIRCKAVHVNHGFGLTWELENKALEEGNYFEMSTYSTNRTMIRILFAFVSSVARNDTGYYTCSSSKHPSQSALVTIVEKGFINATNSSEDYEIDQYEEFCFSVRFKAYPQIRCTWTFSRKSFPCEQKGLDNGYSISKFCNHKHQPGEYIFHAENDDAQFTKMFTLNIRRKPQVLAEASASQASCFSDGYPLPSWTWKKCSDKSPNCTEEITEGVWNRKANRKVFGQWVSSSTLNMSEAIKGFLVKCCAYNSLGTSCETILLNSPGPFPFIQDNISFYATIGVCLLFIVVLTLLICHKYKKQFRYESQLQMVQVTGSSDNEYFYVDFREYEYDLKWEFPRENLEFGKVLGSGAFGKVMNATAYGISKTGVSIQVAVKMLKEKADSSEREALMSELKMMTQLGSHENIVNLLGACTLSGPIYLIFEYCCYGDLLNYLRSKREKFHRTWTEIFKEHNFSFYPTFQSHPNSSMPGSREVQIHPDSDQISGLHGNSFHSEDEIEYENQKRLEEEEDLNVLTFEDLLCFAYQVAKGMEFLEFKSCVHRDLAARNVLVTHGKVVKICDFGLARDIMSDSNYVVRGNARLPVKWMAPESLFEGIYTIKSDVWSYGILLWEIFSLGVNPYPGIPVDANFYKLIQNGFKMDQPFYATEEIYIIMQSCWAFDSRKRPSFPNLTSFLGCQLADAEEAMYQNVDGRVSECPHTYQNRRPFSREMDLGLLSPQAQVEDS
Description: Inhibition of human FLT3 at 1 uM

In brackets after ≈: the same amount, converted by molar mass. Activity calls are given as the source filed them. No cut-off for these calls is given here. Bounds are passed on as bounds.

By IC50 is commonly meant the point on the concentration scale where inhibition reaches its midpoint. Consider `O=c1[nH]c2ccccc2nc1-c1ccccc1NCc1cccs1`, for which the figures for the IC50 in data set [1] and in data set [2] were above 10 µM and above 10000 nM, respectively.

Take `COc1ccc(NC(=O)c2cccs2)c(-c2nc3ccccc3[nH]c2=O)c1`: the IC50 in [1] is 7.5 µM; in data set [2] it was 250 nM. Besides, the Ratio IC50 in the data set listed under Homo sapiens [3] is 30.

In the case of `O=c1[nH]c2ccccc2nc1-c1ccccc1NCC1CC1`, in [2], the IC50 was above 10000 nM.

With `O=C(Nc1ccccc1-c1nc2ccccc2[nH]c1=O)c1ccc(Cl)s1`, in data set [2], the IC50 was 380 nM.

For `O=c1[nH]c2ccccc2nc1-c1ccccc1NS(=O)(=O)c1cccs1`, the IC50 in data set [2] is above 10000 nM.

`O=c1[nH]c2ccccc2nc1-c1ccccc1NCc1ccccn1`: the IC50 in data set [2] came to 1600 nM.

For `O=c1[nH]c2ccccc2nc1-c1ccccc1NCc1ccc(F)cc1`, the IC50 in [2] was above 10000 nM.

Regarding `O=C(Nc1ccccc1-c1nc2ccccc2[nH]c1=O)c1nccs1`, the IC50 in data set [2] worked out at 530 nM.

For `COc1ccc(C(=O)Nc2ccccc2-c2nc3ccccc3[nH]c2=O)cc1`, the results for the IC50 in data set [1] and in [2] were above 10 µM and 980 nM, respectively.

In the case of `O=C(Nc1ccccc1-c1nc2ccccc2[nH]c1=O)c1ccccn1`, in data set [4], the Stability entry is “Unstable”. Besides, the figures for the IC50 in data set [1] and in [2] were above 10 µM and 76 nM, respectively.

For the molecule `O=C(Nc1ccccc1-c1nc2ccccc2nc1O)c1cccs1`, the IC50 is above 10 µM in data set [1] and 280 nM in data set [2].

Take `O=C(Nc1ccccc1-c1nc2ccccc2[nH]c1=O)c1ccc(F)cc1`: the Stability entry in data set [4] is on record as “Unstable”. For the same molecule, the IC50 is above 10 µM in data set [1] and 150 nM in data set [2].

Regarding `O=C(Nc1ccc(F)cc1-c1nc2ccccc2[nH]c1=O)c1cccs1`, the IC50 in data set [1] was above 10 µM; in [2], 410 nM.

As to `O=C(Nc1cc(Cl)ccc1-c1nc2ccccc2[nH]c1=O)c1cccs1`, the figures for the IC50 in data set [1] and in [2] were above 10 µM and 270 nM, respectively.

Regarding `CC(=O)NC[C@@H]1C[C@@H](NS(=O)(=O)c2cccc3cncc(C)c23)CN1`, the Ratio IC50 in the data set listed under Homo sapiens [5] and in the data set listed under Homo sapiens [3] was 5 in each case.

As to `Cc1cc2nc(-c3ccccc3NC(=O)c3cccs3)c(=O)[nH]c2cc1C`, the IC50 in [1] is above 10 µM; in data set [2], 1600 nM.

For `O=C(Nc1ccccc1-c1nc2cc(F)c(F)cc2[nH]c1=O)c1cccs1`, the IC50 in [1] is above 10 µM; in [2], 1600 nM.

Turning to `O=c1[nH]c2ccccc2nc1-c1ccccc1NCc1ccccc1`, the IC50 in data set [1] was above 10 µM; in [2], above 10000 nM.

In the case of `O=C(Nc1ccccc1-c1nc2ccccc2[nH]c1=O)c1ccccc1`, in data set [2], the IC50 was 170 nM.

`COc1ccc(-n2ncc3ccc(Nc4ccc(N5CCN(C)CC5)c(OC)c4)nc32)cc1`: the Ratio IC50 worked out at 0.4 in the data set filed under Homo sapiens [5] and 2 in the data set listed under Homo sapiens [6].

As for `O=C(Nc1ccc(OC(F)(F)F)cc1-c1nc2ccccc2[nH]c1=O)c1cccs1`, the IC50 in data set [1] was above 10 µM; in data set [2], 110 nM.

`O=c1[nH]c2ccccc2nc1-c1ccccc1NS(=O)(=O)c1ccccc1`: in [2], the IC50 worked out at 7300 nM.

On to `O=C(Nc1ccccc1-c1nc2ccccc2[nH]c1=O)c1cccnc1`, for which the Stability entry in data set [4] is recorded as “Stable”. For the same molecule, the values for the IC50 in data set [1] and in data set [2] were above 10 µM and 580 nM, respectively.

Turning to `O=C(Nc1cc(F)ccc1-c1nc2ccccc2[nH]c1=O)c1cccs1`, the values for the IC50 in data set [1] and in data set [2] were above 10 µM and 78 nM, respectively.

For the molecule `O=C(Nc1ccccc1-c1nc2ccccc2[nH]c1=O)C1CCCCC1`, the 50% inhibitory concentration (IC50) was above 10 µM in [1] and above 10000 nM in [2].

Turning to `O=C(Nc1ccc(Cl)cc1-c1nc2ccccc2[nH]c1=O)c1cccs1`, the IC50 in data set [1] was above 10 µM; in [2] it was 160 nM.

What is called solubility is how much of the substance goes into solution per volume. Low values mean a poorly soluble substance, high ones a readily soluble substance. Usually inhibition stands for the percentage by which the read-out fell short of the control. Higher therefore signals a strong effect. `CC(C)c1ccc(NC(=O)c2cccs2)c(-c2nc3ccccc3[nH]c2=O)c1`: the values for the remaining at 5 h, 5 µM in data set [7] and in data set [8] were 10% and 80.3%, respectively. Also, the PPB in the data set with Plasma [9] is reported as 99.9%; in the data set on Plasma [10] it was 99.6%. For the same molecule, in [11], the solubility came out at 5.8 µM (≈ 2.26 µg/mL). In addition, the result in the data set with OCI-AML-3, with THP-1, in the data set on Jurkat, in the data set on MOLM16, in the data set with MM1.S and in the data set with U-937 was inactive. Moreover, the outcome with EJM, with GDM-1, in the data set on EOL1, in the data set with PL21, in the data set listed under Homo sapiens [12] and in the data set on RPMI-8226 was inactive. Further, the result in the data set on NB-4, in the data set with SKM-1, with KOPN-8, with MDA-MB-231 and in the data set on NOMO-1 was inactive. Moreover, the IC50 was above 10 µM in [1] and 14 nM in data set [2]. In addition, the inhibition in [13], in data set [14] and in data set [15] was above 25% throughout.

`O=C(Nc1ccccc1-c1nc2ccccc2[nH]c1=O)c1ccc(Cl)cc1`: the IC50 in data set [2] was 300 nM.

On to `O=C(Nc1ccccc1-c1nc2cc(Cl)c(Cl)cc2[nH]c1=O)c1cccs1`, for which the IC50 is 4.8 µM in data set [1] and 4000 nM in data set [2]. Moreover, the Ratio IC50 in the data set filed under Homo sapiens [3] was 1.1.
